Results published in patent publication US8221737B2, “Hepatitis C virus inhibitors” (Enanta Pharmaceuticals, Inc., priority 2009, dated 2012).
pEC50: −log10 of the molar value.

Tested on: HCV 1b genotype replicon
Test: HCV replicon assay - qRT-PCR (HCV RNA detection)
Assay type: cell-based
Settings: Hepatitis C virus, from the qRT-PCR or luciferase assay (not specified which), EC50 range class
Source text: HCV replicon cell lines (kindly provided by R. Bartenschlager) isolated from colonies as described by Lohman et. al. (Lohman et al. (1999) Science 285: 110-113, expressly incorporated by reference in its entirety) and used for all experiments. The HCV replicon has the nucleic acid sequence set forth in EMBL Accession No.: AJ242651, the coding sequence of which is from nucleotides 1801 to 8406.
The coding sequence of the published HCV replicon was synthesized and subsequently assembled in a modified plasmid pBR322 (Promega, Madison, Wis.) using standard molecular biology techniques. One replicon cell line (“SGR 11-7”) stably expresses HCV replicon RNA which consists of (i) the HCV 5′UTR fused to the first 12 amino acids of the capsid protein, (ii) the neomycin phosphotransferase gene (neo), (iii) the IRES from encephalomyocarditis virus (EMCV), and (iv) HCV NS2 to NS5B genes and the HCV 3′UTR. Another replicon cell line (“Huh-luc/neo-ET”) described by Vrolijk et. al. (Vrolijk et. al. (2003) Journal of Virological Methods 110:201-209, expressly incorporated by reference in its entirety) stably expresses HCV replicon RNA which consists of (i) the HCV 5′UTR fused to the first 12 amino acids of the capsid protein, (ii) the firefly luciferase reporter gene, (iii) the ubiquitin gene, (iv) the neomycin phosphotransferase gene (neo), (v) the IRES from encephalomyocarditis virus (EMCV), and (vi) HCV NS3 to NS5B genes that harbor cell culture adaptive mutations (E1202G, T12801, K1846T) and the HCV 3′UTR.
These cell lines were maintained at 37° C., 5% CO2, 100% relative humidity in DMEM (Cat#11965-084, Invitrogen), with 10% fetal calf serum (“FCS”, Invitrogen), 1% non-essential amino acids (Invitrogen), 1% of Glutamax (Invitrogen), 1% of 1 OOX penicillin/streptomycin (Cat#15140-122, Invitrogen) and Geneticin (Cat#10131-027, Invitrogen) at 0.75 mg/ml or 0.5 mg/ml for 11-7 and Huh-luc/neo-ET cells, respectively.
EC50 values of single agent compounds and combinations were determined by HCV RNA detection using quantitative RT-PCR, according to the manufacturer's instructions, with a TAQMAN® One-Step RT-PCR Master Mix Reagents Kit (Cat# AB 4309169, Applied Biosystems) on an ABI Model 7500 thermocycler. The TaqMan primers used for detecting and quantifying HCV RNA were obtained from Integrated DNA Technologies. HCV RNA was normalized to GAPDH RNA levels in drug-treated cells, which is detected and quantified using the Human GAPDH Endogenous Control Mix (Applied Biosystems, AB 4310884E). Total cellular RNA is purified from 96-well plates using the RNAqueous 96 kit (Ambion, Cat# AM1812). Chemical agent cytotoxicity is evaluated using an MTS assay according to the manufacturer's directions (Promega).
The compounds of the present invention can be effective against the HCV 1b genotype. It should also be understood that the compounds of the present invention can inhibit multiple genotypes of HCV. In one embodiment compound of the present invention are active against the 1a, 1b, 2a, 2b, 3a, 4a, and 5a genotypes. […] EC50 ranges against HCV 1b are as follows: A>10 nM; B1-10 nM; C<1 nM.

Compound	pEC50
CCN(NC(=O)OC)C(=O)N1CCC[C@H]1c1ncc(-c2ccc(-c3ccc(-c4cnc([C@@H]5CCCN5C(=O)[C@@H](NC(=O)OC)C(C)C)[nH]4)cc3)cc2)[nH]1 [Example 375]	> 9.00
CCN(NC(=O)OC)C(=O)N1CCC[C@H]1c1ncc(-c2ccc(C#Cc3ccc4nc([C@@H]5CCCN5C(=O)[C@@H](NC(=O)OC)C(C)C)[nH]c4c3)cc2)[nH]1 [Example 370]	> 9.00
COC(=O)N[C@H](C(=O)N1CCC[C@H]1c1ncc(-c2ccc(-c3ccc(-c4cnc([C@@H]5CCCN5C(=O)N(NC(=O)OC)C(C)C)[nH]4)cc3)cc2)[nH]1)C(C)C [Example 374]	> 9.00
COC(=O)N[C@H](C(=O)N1CCC[C@H]1c1nc2ccc(C#Cc3ccc(-c4cnc([C@@H]5CCCN5C(=O)N(NC(=O)OC)C(C)C)[nH]4)cc3)cc2[nH]1)C(C)C [Example 369]	> 9.00
COC(=O)NN(C(=O)N1CCC[C@H]1c1ncc(-c2ccc(-c3ccc(-c4cnc([C@@H]5CCCN5C(=O)N(NC(=O)OC)C(C)C)[nH]4)cc3)cc2)[nH]1)C(C)C [Example 373]	> 9.00
COC(=O)N[C@H](C(=O)N1CCC[C@H]1c1nc2ccc(C#Cc3ccc(-c4cnc([C@@H]5CCCN5C(=O)N(CC(C)C)NC(=O)OC)[nH]4)cc3)cc2[nH]1)C(C)C [Example 372]	> 9.00
CCCN(NC(=O)OC)C(=O)N1CCC[C@H]1c1ncc(-c2ccc(C#Cc3ccc4nc([C@@H]5CCCN5C(=O)[C@@H](NC(=O)OC)C(C)C)[nH]c4c3)cc2)[nH]1 [Example 371]	> 9.00
COC(=O)N[C@H](C(=O)N1CCC[C@H]1c1ncc(-c2ccc3cc(-c4ccc5[nH]c(N6CCCN6C(=O)[C@@H](NC(=O)OC)C(C)C)nc5c4)ccc3c2)[nH]1)C(C)C [Example 368]	> 9.00
